Patent publication US20240368158A1, “KINASE MODULATORS, COMPOSITIONS COMPRISING THE KINASE MODULATOR, AND METHODS OF USING THE SAME” (BIOFRONT LTD, priority 2021, published 2024)

Key:
[1] = test system: HPK1 p-SLP-76 in Jurkat cells; assay: HPK1 p-SLP-76 inhibition assay in Jurkat cells (HTRF); format: cell-based; conditions: Homo sapiens, 4 h compound, anti-CD3 stimulation 20 min
Method: Before compound treatment, Jurkat cells were starved in PRMI-1640 medium supplemented with 0.5% FBS overnight. The cell density was adjusted to 1*10^7 cells/mL in assay medium (RPMI-1640 no phenol red with 0.5% FBS) and 16 uL cell suspension was transferred per well to a 384-well plate (Corning #3765). […] of test compound was prepared in assay medium and 4 uL was added per well to the 384-well plate. The plate was then incubated at 37° C., 5% CO2 for 4 h. Jurkat cells in 384-well plate were stimulated with anti-CD3 (BD Biosciences #555329, final conc. is 10 ug/mL) for 20 min at 37° C., 5% CO2 by adding 4 uL 6× antibody solution per well. Phospho-SLP76 HTRF kit was purchased from Cisbio (63ADK076PEH). 8 uL 4× Lysis Buffer was added to 384-well plate after anti-CD3 stimulation. The plate was centrifuged at 1,000 rpm for 1 min, shaken at 250 rpm for 60 min and centrifuged again at 1,000 rpm for 5 min. Afterwards the cell lysates were transferred to the assay plate (Greiner #784075) with 16 uL per well. 4 uL detection antibody mix per well prepared in Detection Buffer was added to the assay plate, followed by centrifugation at 1,000 rpm for 1 min and incubation at 25° C. overnight. The fluorescence emission at two different wavelengths (665 nm and 620 nm) was read by an HTRF compatible microplate reader and the IC50 value of the compound was calculated.

HPK1 = molecular target: T1, HPK1 (Homo sapiens, UniProt Q92918); assay: HPK1 enzyme inhibition assay (ADP-Glo); format: biochemical; conditions: MBP substrate, ATP
T1 construct: purchased Signal Chem M23-11G-10
T1 sequence (Q92918 1-346 limits assumed): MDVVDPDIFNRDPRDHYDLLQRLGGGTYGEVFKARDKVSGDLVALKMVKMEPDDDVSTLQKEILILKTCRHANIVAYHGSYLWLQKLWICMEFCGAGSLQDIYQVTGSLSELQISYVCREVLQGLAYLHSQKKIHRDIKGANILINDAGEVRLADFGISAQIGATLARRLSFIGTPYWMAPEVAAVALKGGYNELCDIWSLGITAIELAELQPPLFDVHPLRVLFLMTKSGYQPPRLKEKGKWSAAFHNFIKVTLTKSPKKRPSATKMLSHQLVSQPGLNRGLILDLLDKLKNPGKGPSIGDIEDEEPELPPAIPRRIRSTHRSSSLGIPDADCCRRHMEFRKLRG
Method: The compound was dissolved in 100% DMSO at the concentration of 10 mM. The HPK1 protein was purchased from Signal Chem (M23-11G-10). 2.5 μL per well of 2×HPK1 protein was added to assay plate containing the test compound, centrifuged at 1500 rpm for 1 minute, and then incubated at 25° C. for 60 minutes. MBP protein was purchased from Signal Chem (M42-51N) and ATP was purchased from Promega (V9102). The two were added 2.5 μL per well mixture of 2×MBP (0.2 ug/ul) and ATP (20 μM), centrifuged at 1500 rpm for 1 minute, then incubated at 25° C. for 60 minutes. Then added 5 μL of ADP-Glo from Promega (V9102) to the assay plate and depleted the unconsumed ATP for 60 minutes. Then centrifuged at 1500 rpm for 1 minute and incubated at 25° C. for 60 minutes. Finally, 10 μL of the kinase assay reagent from Promega (V9102) was added to the assay plate to convert ADP to ATP, centrifuged at 1500 rpm for 1 minute, incubate at 25° C. for 40 minutes. After 40 minutes incubation, the […] was determined. Based on the results, the IC50 value of the compound was calculated.

Row | SMILES | IC50 [1] [nM] | IC50 (HPK1) [nM]
1 | O=C1CNCCN1c1cccc(-c2cnc3[nH]cc(C#CC4CC4)c3c2Cl)c1 [Example 5, 1-(3-(4-chloro-3-(cyclopropylethynyl)-1H-pyrrolo[2,3-b]pyridin-5-yl)phenyl) piperazin-2-one] | > 10000 | ≤ 10
2 | CCc1c[nH]c2ncc(-c3cccc(N4CCCC(CO)C4=O)c3)c(Cl)c12 (racemic) [Example 22, 1-(3-(4-chloro-3-ethyl-1H-pyrrolo[2,3-b]pyridin-5-yl)phenyl)-3-(hydroxymethyl)piperidin-2-one] | 300 to 3000 | ≤ 10
3 | CCc1c[nH]c2ncc(-c3cccc(N4CCN(C(=O)CN(C)C)CC4=O)c3)c(Cl)c12 [Example 31, 1-(3-(4-chloro-3-ethyl-1H-pyrrolo[2,3-b]pyridin-5-yl)phenyl)-4-(dimethylglycyl)piperazin-2-one] | 300 to 3000 | ≤ 10
4 | O=C1CNCCN1c1cccc(-c2cnc3[nH]cc(CC(F)F)c3c2Cl)n1 [Example 16, 1-(6-(4-chloro-3-(2,2-difluoroethyl)-1H-pyrrolo[2,3-b]pyridin-5-yl)pyridin-2-yl)piperazin-2-one] | 300 to 3000 | 10 to 100
5 | CCc1c[nH]c2ncc(-c3cccc(N4CCN(C(=O)CNc5ccc(C[C@@H](N)C(=O)O)cc5)CC4=O)c3)c(Cl)c12 [Example 46, (R)-2-amino-3-(4-((2-(4-(3-(4-chloro-3-ethyl-1H-pyrrolo[2,3-b]pyridin-5-yl)phenyl)-3-oxopiperazin-1-yl)-2-oxoethyl)amino)phenyl)propanoic acid] | 3000 to 10000 | ≤ 10
6 | O=C1CNCCN1c1cccc(-c2cnc3[nH]cc(C#Cc4cccnc4)c3c2Cl)c1 [Example 6, 1-(3-(4-chloro-3-(pyridin-3-ylethynyl)-1H-pyrrolo[2,3-b]pyridin-5-yl)phenyl)piperazin-2-one] | 300 to 3000 | 10 to 100
7 | O=C1CNCCN1c1nc(-c2cnc3[nH]cc(C4CC4)c3c2Cl)cs1 [Example 11, 1-(4-(4-chloro-3-cyclopropyl-1H-pyrrolo[2,3-b]pyridin-5-yl)thiazol-2-yl)piperazin-2-one] | 3000 to 10000 | 10 to 100
8 | O=C1CN(S(=O)(=O)CCCN2CCOCC2)CCN1c1cccc(-c2cnc3[nH]cc(CC(F)F)c3c2Cl)c1 [Example 59, 1-(3-(4-chloro-3-(2,2-difluoroethyl)-1H-pyrrolo[2,3-b]pyridin-5-yl)phenyl)-4-((3-morpholinopropyl)sulfonyl)piperazin-2-one] | 300 to 3000 | ≤ 10
9 | O=C1CNCCN1c1cncc(-c2cnc3[nH]cc(C4CC4)c3c2Cl)c1 [Example 19, 1-(5-(4-chloro-3-cyclopropyl-1H-pyrrolo[2,3-b]pyridin-5-yl)pyridin-3-yl)piperazin-2-one] | > 10000 | 100 to 1000
10 | COCCN1CCN(c2cccc(-c3cnc4[nH]cc(CC(F)F)c4c3Cl)c2)C(=O)C1 [Example 37, 1-(3-(4-chloro-3-(2,2-difluoroethyl)-1H-pyrrolo[2,3-b]pyridin-5-yl)phenyl)-4-(2-methoxyethyl)piperazin-2-one] | 300 to 3000 | 10 to 100
11 | O=C1CN(S(=O)(=O)CCCN2CCOCC2)CCN1c1cccc(-c2cnc3[nH]cc(C4CC4)c3c2Cl)c1 [Example 55, 1-(3-(4-chloro-3-cyclopropyl-1H-pyrrolo[2,3-b]pyridin-5-yl)phenyl)-4-((3-morpholinopropyl)sulfonyl)piperazin-2-one] | 300 to 3000 | ≤ 10
12 | CN(C)CC(=O)N1CCN(c2cccc(-c3cnc4[nH]cc(C#Cc5cccnc5)c4c3Cl)c2)C(=O)C1 [Example 30, 1-(3-(4-chloro-3-(pyridin-3-ylethynyl)-1H-pyrrolo[2,3-b]pyridin-5-yl)phenyl)-4-(dimethylglycyl)piperazin-2-one] | 300 to 3000 | 10 to 100
13 | COCC(=O)N1CCN(c2cccc(-c3cnc4[nH]cc(CC(F)F)c4c3Cl)c2)C(=O)C1 [Example 38, 1-(3-(4-chloro-3-(2,2-difluoroethyl)-1H-pyrrolo[2,3-b]pyridin-5-yl)phenyl)-4-(2-methoxyacetyl)piperazin-2-one] | 300 to 3000 | ≤ 10
14 | COCC(=O)N1CCN(c2cccc(-c3cnc4[nH]cc(C#Cc5cccnc5)c4c3Cl)c2)C(=O)C1 [Example 29, 1-(3-(4-chloro-3-(pyridin-3-ylethynyl)-1H-pyrrolo[2,3-b]pyridin-5-yl)phenyl)-4-(2-methoxyacetyl)piperazin-2-one] | 300 to 3000 | ≤ 10
15 | CCc1c[nH]c2ncc(-c3cccc(N4CCN(C(=O)CC56CC7CC(CC(C7)C5)C6)CC4=O)c3)c(Cl)c12 [Example 33, 4-(2-((1s,3s)-adamantan-1-yl)acetyl)-1-(3-(4-chloro-3-ethyl-1H-pyrrolo[2,3-b]pyridin-5-yl)phenyl)piperazin-2-one] | 3000 to 10000 | 10 to 100
16 | CC1CN(CCCS(=O)(=O)N2CCN(c3cccc(-c4cnc5[nH]cc(C6CC6)c5c4Cl)c3)C(=O)C2)C1 [Example 57, 1-(3-(4-chloro-3-cyclopropyl-1H-pyrrolo[2,3-b]pyridin-5-yl)phenyl)-4-((3-(3-methylazetidin-1-yl)propyl)sulfonyl)piperazin-2-one] | 300 to 3000 | ≤ 10
17 | COCCS(=O)(=O)N1CCN(c2cccc(-c3cnc4[nH]cc(C5CC5)c4c3Cl)c2)C(=O)C1 [Example 54, 1-(3-(4-chloro-3-cyclopropyl-1H-pyrrolo[2,3-b]pyridin-5-yl)phenyl)-4-((2-methoxyethyl)sulfonyl)piperazin-2-one] | 300 to 3000 | ≤ 10
18 | COCCS(=O)(=O)N1CCN(c2cccc(-c3cnc4[nH]cc(CC(F)F)c4c3Cl)c2)C(=O)C1 [Example 62, 1-(3-(4-chloro-3-(2,2-difluoroethyl)-1H-pyrrolo[2,3-b]pyridin-5-yl)phenyl)-4-((2-methoxyethyl)sulfonyl)piperazin-2-one] | 300 to 3000 | ≤ 10
19 | CCc1c[nH]c2ncc(-c3cccc(N4CCC[C@H](CO)C4=O)c3)c(Cl)c12 [Example 23, (R)-1-(3-(4-chloro-3-ethyl-1H-pyrrolo[2,3-b]pyridin-5-yl)phenyl)-3-(hydroxymethyl)piperidin-2-one] | 300 to 3000 | ≤ 10
20 | CC(C)(C)C#Cc1c[nH]c2ncc(-c3cccc(N4CCNCC4=O)c3)c(Cl)c12 [Example 3, 1-(3-(4-chloro-3-(3,3-dimethylbut-1-yn-1-yl)-1H-pyrrolo[2,3-b]pyridin-5-yl)phenyl) piperazin-2-one] | 300 to 3000 | 100 to 1000
21 | CCc1c[nH]c2ncc(-c3cccc(N4CCN(C(=O)CN5CCOCC5)CC4=O)c3)c(Cl)c12 [Example 26, 1-(3-(4-chloro-3-ethyl-1H-pyrrolo[2,3-b]pyridin-5-yl)phenyl)-4-(2-morpholinoacetyl)piperazin-2-one] | 300 to 3000 | ≤ 10
22 | O=C1CN(S(=O)(=O)CCCN2CC(F)C2)CCN1c1cccc(-c2cnc3[nH]cc(C4CC4)c3c2Cl)c1 [Example 58, 1-(3-(4-chloro-3-cyclopropyl-1H-pyrrolo[2,3-b]pyridin-5-yl)phenyl)-4-((3-(3-fluoroazetidin-1-yl)propyl)sulfonyl)piperazin-2-one] | 300 to 3000 | ≤ 10
23 | O=C1CNCCN1c1cccc(-c2cnc3[nH]cc(C4CC4)c3c2Cl)c1 [Example 4, 1-(3-(4-chloro-3-cyclopropyl-1H-pyrrolo[2,3-b]pyridin-5-yl)phenyl) piperazin-2-one] | 300 to 3000 | ≤ 10
